Patent US20250339531A1, “DUX4 POLYPEPTIDES AND NUCLEIC ACIDS FOR TREATING INFLAMMATORY AND AUTOIMMUNE CONDITIONS” (Fred Hutchinson Cancer Center, priority 2021, published 2025)
“Also recorded” adds a separate entry of the source.

Columns and labels:
[1] = tested on: HLA-E; experiment: Immunoblot of non-canonical MHC class I HLA-E; type: cell-based, human; conditions: MB135iDUX4 cells
Experimental: (§1) Protein samples were harvested in RIPA buffer [150 mM NaCl, 1% NP-40, 0.5% Na-deocycholate, 1% SDS, 25 mM Tris-HCl pH7.4] supplemented with protease and phosphatase inhibitor tablets (Pierce), followed by sonication in Diagenode Bioruptor. Lysate was cleared by centrifugation at 16000×g and quantified using a Pierce BCA assay (Thermo Fisher Scientific). Samples were run on NuPAGE precast polyacrylamide gels (Invitrogen) and transferred to PVDF membrane. Membranes were blocked in PBS containing 0.1% Tween-20 and 5% non-fat dry milk before overnight incubation at 4° C. with primary antibodies (see resource table for a list of antibodies used in this study). Membranes were incubated with horseradish peroxidase-conjugated secondary antibodies for 1 hour at room temperature and SuperSignal chemiluminescent substrate (Thermo Scientific) was used for detection on film with a Mini-medical 90 processor. Membranes were stripped with Restore Western Blot Stripping Buffer (Pierce).

[2] = tested on: immunoproteasome subunits PSMB8, PSMB9, and PSMB10; experiment: Immunoblot of IFNG-induced immunoproteasome subunits; type: cell-based, human; conditions: for suppression of IFNG-induced immunoproteasome subunit protein, pulsed protocol / suppression of IFNG-induced immunoproteasome subunit protein, continuous protocol: MB135 cells; for suppression of IFNG-induced immunoproteasome subunit protein, pulsed protocol: 4 h doxycycline pulse, later IFNG 16 h; for suppression of IFNG-induced immunoproteasome subunit protein, continuous protocol: doxycycline 20 h, IFNG last 16 h
Experimental: In the “continuous” protocol (similar to the experiments shown in the prior FIGS. 1, 2, 4, 5, and 6), doxycycline is added to induce DUX4 expression at time 0 and four hours later IFNG is added for an additional 16 hours, resulting in 20 hours of continuous DUX4 induction with the last 16 hrs exposed to IFNG.
In the “pulsed” protocol, doxycycline is added at time 0 to induce DUX4 expression, but after four hours the media is changed to remove the doxycycline, resulting in a pulse of DUX4 mRNA and protein sufficient to induce DUX4 target gene expression (see Resnick et al., Cell Rep. 2019 Nov. 12; 29(7):1812-1820.e5). IFNG is added at 28 hours for a period of 16 hours prior to harvesting the cells. […] This difference is not likely to be due to different amounts of the DUX4 and mutant DUX4 proteins because at the time of harvest both DUX4 and the F67A mutant DUX4 protein levels have declined to similarly low amounts relative to the continuous protocol, but could be due to the activation of DUX4 target genes by the full-length DUX4 since the H3.X/Y proteins show persistent expression in the pulsed protocol.
as §1

[3] = tested on: proteins that co-immunoprecipitated with DUX4-CTD constructs expressed in MB135 myoblasts; experiment: LC-MS of proteins co-immunoprecipitated with DUX4-CTD (Table 1) and western validation; type: binding, human; conditions: LC-MS of co-IP; western validation with MB135-iDUXB as control; listed as DUX4-CTD
From the text: As an unbiased method to identify proteins that interact with the C-terminal region of DUX4, liquid chromatography mass spectroscopy (LC-MS) was used to identify proteins that co-immunoprecipitated with DUX4-CTD constructs expressed in MB135 myoblasts. In the first experiment, MB135iDUX4-CTD cells were used, either untreated, treated with doxycycline alone, or with both doxycycline and IFNG. In the second experiment, MB135iDUX4-CTD and MB135iDUX4mL1dL2 cells were used, both treated with doxycycline and IFNG, compared to these two cell lines untreated and combined as a control. Proteins with a minimum of 2 peptide spectrum matches (PSMs) in at least one sample that were identified in both experiments were assigned to one of ten categories (see Methods) to separate candidate interactors from other categories that might be co-purified because of obligate interactions (e.g., proteasome or ribosome) or might be less likely to be physiologically relevant (e.g., cytoskeletal proteins). Candidate interactors were then ranked based on the total PSMs for that protein across all samples.
Centrifugation at 2500 rcf at 4° C. for 5 min pelleted the nuclei, supernatant was discarded, and nuclei resuspended in 1 mL IP buffer pH 7.4 (25 mM Tris-HCl pH 7.5, 175 mM NaCl, 1 mM EDTA, 0.2% NP-40, 5% glycerol) and incubated for 1 hour at 4° C. with rotation then spun at 21000 rcf for 10 minutes at 4° C. to pellet insoluble debris. Protein concentration was determined using the Pierce BCA Protein Assay Kit (ThermoFisher, 23225). An equivalent amount of protein per sample was pre-cleared with Dynabeads Protein G (Invitrogen) bound to mouse IgG (Abcam #131368) for 1 hour at 4° C. with rotation. FLAG-tagged constructs were then immunoprecipitated with Dynabeads Protein G beads coupled to mouse anti-FLAG M2 mAb (Sigma F3165) for 3 hours at 4° C. with rotation. Beads were washed 3× with 1 mL IP buffer and eluted by adding 2× NuPage LDS Sample Buffer (Thermo Fisher, diluted from 4× with PBS) to the beads and heating for 10 minutes at 70° C.
For LC-MS, anti-FLAG immunoprecipitation was performed with beads cross-linked to the anti-FLAG antibody and the proteins competitively eluted with FLAG peptide. Eluted protein samples were electrophoresed into a NuPage 4-12% Bis-Tris gel, excised, and processed by the Fred Hutchinson Cancer Research Center Proteomics Core. Samples were reduced, alkylated, digested with trypsin, desalted, and run on the Orbitrap Eclipse Tribid Mass Spectrometer (Thermo Fisher). Proteomics data were analyzed using Proteome Discoverer 2.4 against a Uniprot human database that included common contaminants using Sequest HT and Percolator for scoring. […] Proteins that were identified in at least one sample from both independent experiments with at least 2 PSMs in one sample were assigned to one of ten categories: 1, candidates; 2, cytoskeletal associated; 3, cytoskeletal; 4, ribosome/translation associated; 5, proteasome associated; 6, membrane or extracellular; ER, golgi, or vesicle associated; 8, lipid metabolism; 9, chaperones; 10, nuclear import or nuclear membrane associated. The proteins in category 1 were further investigated for interactions with DUX4.

Row | Substance | effect on IFNG-induced HLA-E protein [1] | suppression of IFNG-induced immunoproteasome subunit protein, pulsed protocol [2] | suppression of IFNG-induced immunoproteasome subunit protein, pulsed protocol ([2]; listed as wildtype DUX4) | suppression of IFNG-induced immunoproteasome subunit protein, continuous protocol [2] | suppression of IFNG-induced immunoproteasome subunit protein, continuous protocol ([2]; listed as wildtype DUX4) | suppression of PSMB9 in PKR knockout background ([2]; MB135iDUX4 WT and PKR-KO cells, continuous or pulsed) | candidate interacting proteins [3]
1 | DUX4: human DUX4 protein SEQ ID NO:3 expressed from doxycycline inducible codon altered transgene SEQ ID NO:2 | does not suppress the noncanonical MHC class E (HLA-E); also recorded: maintaining HLA-E in multiple cell types | completely blocked; also recorded: elicited the same degree of suppression when assayed forty-four hours later; also recorded: completely block protein accumulation of PSMB9 and PSMB10 | suppressed MHC-I and immunoproteasome subunits | completely blocked; also recorded: IFNG-induction of MHC-I and the immunoproteasome was suppressed; also recorded: completely block protein accumulation of PSMB9 and PSMB10 | suppressed IFNG-induced MHC-I and the immunoproteasome expression | evident in both wild-type (WT) and PKR-KO cells | 
2 | longCTD: 3×FLAG tag and nls in frame with carboxyterminal 271 amino acids of DUX4 (aa154-424), SEQ ID NOS: 8-9 |  |  |  |  |  |  | STAT1 and DDX3X, two key regulators of innate immune signaling, ranked at the top of the list; also recorded: validated the DUX4-CTD interactions with DDX3X, STAT1, PRKDC, YBX1, HNRNPM, PABPC1, NCL, CDK4, and HNRPU
